These results are taken from patent US8071548B2, “Method of reducing injury to mammalian cells” (Nono, Inc., priority 2002, dated 2011).

For data set [1], the system named is cortical neuronal cultures. The data set can be described thus: DNA fragmentation assays (TUNEL, DNA gel electrophoresis). In kind it is cell-based, mouse. The text has this:
DNA fragmentation was examined using the terminal deoxynucleotidyl transferase-mediated end nick labeling (TUNEL) method (Gavrieli et al., 1992; Didenko and Hornsby, 1996; Didenko et al., 1998) and by DNA agarose gel electrophoresis (Hill et al., 2000).
TUNEL Assay: Nuclear DNA strand breaks were detected by enzymatically labeling free 3′-OH termini with modified nucleotides provided in the Apoptag kit (Intergen) using the manufacturer's instructions. Visualization of TUNEL-stained nuclei was achieved using an anti-digoxigenin antibody conjugated to a fluorescein or peroxidase reporter molecule (ApopTag Peroxidase Kits S7110 and S7100, respectively, Intergen). In fluorescence experiments, nuclei were counterstained using 5 ng/ml Hoechst 33258 (1:5000, Transduction Labs), and visualized using 465-495 nm excitation and 515-555 nm emission for fluorescein and 340 nm excitation and 510-40 nm emission for Hoechst. The number of TUNEL positive cells was expressed as a fraction of the total cell number in the field. In each culture, 4-8 random fields were quantified. Approximately 100-200 cells were counted per culture, and at least 3 experiments were performed for each set of counts.
DNA Gel Electrophoresis: DNA laddering was evaluated as described elsewhere (Hill et al., 2000). In brief, all tissue was collected from each culture well and pelleted by centrifugation (1000 rpm; 1 min). The cells were digested for 2 h at 56° C. in buffer containing (in mM) 10 Tris pH 8.0, 2 EDTA pH8, 400 NaCl, 0.5% SDS, 1 mg/ml proteinase K. Digest solution was subjected to phenol/chloroform extraction and total DNA was precipitated from the aqueous layer with an equal volume of 100% ethanol. The DNA pellet was dried, dissolved in 50 μl ddH20 and kept overnight at 4° C. 10 μg DNA was prepared on a 2% agarose gel. Gels were stained with ethidium bromide and photographed.

Data set [2] deals with caspase 3. The data set can be described thus: Active caspase 3 immunofluorescence. In kind it is cell-based, mouse. The settings on record: positive control. Here is the method: Cultures were fixed with warm 4% paraformaldehyde and 4% sucrose in PBS for 20 min, permeabilized with 0.1% Triton X-100 for 10 min at 4° C., and blocked with 10% goat serum in PBS for 1 h at RT. Immunofluorescence was visualized with an inverted Nikon microscope using a 40× oil immersion lens. FITC, rhodamine and Hoechst were visualized using 465-495 excitation and 515-555 nm emission, 510-560 nm excitation and 590 nm emission, and 340 nm excitation and 510 nm emission, respectively. Active caspase 3 was labelled by incubating the cultures with a purified rabbit monoclonal anti-active caspase 3 antibody (1:300; BD PharMingen) and a fluorescein-conjugated goat anti-mouse IgG secondary antibody (1:500; Transduction Labs). Nitrotyrosine was labelled by incubating the cultures with a rabbit polyclonal α-nitrotyrosine primary antibody (1:300; Upstate) and a rhodamine-conjugated goat anti-rabbit IgG secondary antibody (1:500; Transduction Labs). AIF was labelled by incubating the cultures with an AIF antibody (1:200; Santa Cruz, (Zhang et al., 2002)) and a rhodamine-conjugated goat anti-mouse IgG secondary antibody (1:500; Transduction Labs). In some experiments, nuclei were counter-stained with Hoechst 33258 (1:5,000, Transduction Labs).

For data set [3], the system named is traumatic brain injury. The data set can be described thus: Lateral fluid percussion injury model of TBI. In kind it is in vivo, Sprague-Dawley rats. The following applies: analyzed 24 h after injury. Here is the method:
Adult male Sprague-Dawley rats weighing approximately 350 g were ordered from Charles River and anesthesia was induced using a gaseous mixture of 1:2 oxygen:nitrous oxide with 2% halothane. The halothane level was reduced to 1% during surgical manipulations and weights were recorded prior to preparatory surgery. The preparatory surgery for these experiments included the cannulation of the left femoral vein and a 5 mm diameter craniotomy. The venous cannula is sealed and tucked inside the animal whereupon the wound is sutured. The center of the craniotomy lies about 2.5 mm to the right of the sagittal suture, between the bregma and lambda. A modified Leur-loc is attached to the perimeter of the craniotomy with superglue (FIG. 28).
Dental acrylic (GC America Inc, Alsip, Ill.) is applied around the modified Leur-loc to seal it into place. A small piece of gelfoam is placed into the opening and the skin is sutured over the entire setup. The animal is then returned to its cage. The following day, the animal is re-anesthetized, weighed, and its wound is re-opened. The gelfoam is removed and the animal is attached to the fluid percussion device via the modified Leur-loc. At this time, the animal is given a ˜20 ms saline injection at approximately 2.4 atmospheres (350 mV on the oscilloscope) using the fluid percussion injury device (Custom Design & Fabrication, Richmond, Va.) (FIG. 29).
On occasion, the animal ceases spontaneous breathing following the injury and 1-2 chest compressions are required for resuscitation. The modified Leur-loc along with the dental acrylic is removed en bloc immediately following the injury. The animal is placed on 100% oxygen while its wound is cleaned and resealed with Vetbond tissue adhesive (3M Worldwide, Maplewood, Minn.). The rat's body temperature during the recovery time is maintained at 37° C. with a homeothermic warming blanket (Harvard Bioscience Inc, Holliston, Mass.). The amount of time necessary for the righting reflex to return is recorded and the animal is placed back into its cage. At 3 h post-injury, the animal is re-anesthetized and weighed again. The wound overlying the femoral cannula is opened and the cannula is cleaned out using heparinized saline. […] The cannula is sealed, tucked again into the animal, and the wound is re-sutured. At 24 h post-injury, the animal is re-anesthetized and weighed again. The rat is transcardially perfused using heparinized saline to clean out the cardiovascular system, followed by a 4% formalin fixative solution. The rat is decapitated and left in the fixative solution overnight. The brain is extracted the following day and processed. The volume of damaged brain (FIG. 26, right graph) is assessed according to the same methods as described in Aarts et al., 2002, for assessing stroke volumes. […]

Data set [4] has as its system transient middle cerebral artery occlusion. The data set can be described thus: Transient MCAO, dose study of infarct size. The settings on record: 6 mg/kg 1 h before the stroke. Type of data set: in vivo, Sprague-Dawley rats.
The subject of data set [5] is cultured cortical neurons.
For data set [6], the system named is cortical neuronal cultures. The data set can be described thus: Sublethal stretch injury with or without NMDA, cell death in cortical cultures. Type of data set: cell-based. The settings on record: 200 μM. The method, then:
[…]. In brief, cerebral cortices from 10 to 12 embryos were incubated for 10 min in 0.05% trypsin-EDTA, dissociated by trituration, and plated on flexible membranes coated with poly-L-ornithine in 6 well plates (Flexcell International Corporation, Hillsborough, N.C.) at a density of 3.25×10^6 cells per well. Plating medium consisted of DMEM supplemented with 10% heat-inactivated horse serum (Gibco) and (in mM) 2 glutamine, 25 glucose, and 26 bicarbonate. The cultures were maintained at 37° C. in a humidified 5% CO2 atmosphere. After 3 days in vitro, growth of non-neuronal cells was halted by a 48 h exposure to 10 μM FDU-solution (5 μM uridine, 5 μM (+)-5-fluor-2′-deoxyuridine). This produces cultures in which >85% of the cells are neurons, based on immunohistochemical staining for glial fibrillary associated protein (exclusive to astrocytes), and for the NMDAR1 subunit (not shown). The cultures were used for experiments after 12-14 days in vitro.
The cultures, grown on silastic membranes as above, were placed in the Flexercell® FX-3000™ Strain Unit (Flexcell Int., Inc.), a computer-driven instrument that uses a vacuum pulse to deform the culture substrate. In all experiments, the cortical cultures were stretched to 130% of their original length for 1 s, inducing a sublethal injury as recently characterized by us (Arundine et al., 2003). The stretched neurons maintained cell membrane integrity, viability, and electrophysiological function.
Cell death was determined by serial quantitative measurements of propidium iodide (PI) fluorescence using a multiwell plate fluorescence scanner (Cytofluor II, PerSeptive Biosytems, Framingham, Mass., USA) as described previously (Sattler et al., 1997; Sattler et al., 1998). In brief, the culture medium in each tissue culture well was replaced with control solution containing 50 μg/ml PI, and a baseline fluorescence reading was taken. Sequential readings were then taken at appropriate intervals over the 20 h observation period. The fraction of dead cells in each culture at a given time was calculated as: Fraction dead=(Ft−Fo)/FNMDA Where Ft=PI fluorescence at time t, F0=initial PI fluorescence at time zero and FNMDA=background subtracted PI fluorescence of identical cultures from the same dissection and plating, 20-24 h after a 60 min exposure to 1 mM NMDA at 37° C. Based on manual observations at the time of validation of this technique, this NMDA exposure routinely produced near complete neuronal death in each culture but had no effect on surrounding glia (also see (Bruno et al., 1994; David et al., 1996; Sattler et al., 1997)). Adding Triton X-100 (0.1%) to cultures treated in this manner produced an additional 10-15% increase in PI fluorescence due to permeabilization of non-neuronal cell membranes, consistent with a 10-15% glial component in the cultures.
All experiments were performed at 37° C. Unless otherwise indicated, all solutions contained nimodipine (2 μM) and CNQX (10 μM) to restrict the actions of applied NMDA to NMDARs by preventing the secondary activation of other pathways (Sattler et al., 1998). In general, the cultures were washed ×2 with control solution and immediately stretched to 130% of their original length for 1 s. After the stretch, they were washed ×1 with control solution alone or challenged with an additional treatment (e.g., NMDA) and placed at 37° C. for 1 h. They were then washed ×1 with control solution and then with control solution containing 50 μg/ml PI to obtain a baseline reading. In pilot studies, baseline readings obtained at this stage were similar to those obtained by staining the cells with PI prior to stretch. As the stretch causes splashing of the bath solution, staining with PI after stretch reduced biohazard potential and artifacts associated with PI outside the culture well. Unstretched controls were manipulated identically to stretched cultures.

Data set [7] deals with reactive oxygen species. The data set can be described thus: ROS production (DHR fluorescence). Type of data set: cell-based, mouse. Here is the method:
The production of reactive oxygen species (ROS) was measured with DHR. In brief, DHR is oxidized to a fluorescent rhodamine-123 (Royall and Ischiropoulos, 1993), and the consequent rise in fluorescence may be used as an indicator of ROS production.
ROS were measured as previously described (Tymianski et al., 1998; Aarts et al., 2003). In brief, cultures were pre-loaded for 30 min with 5 μM DHR and subjected to the experimental insult. DHR fluorescence was measured in a multiwell plate fluorescence scanner (Cytofluor II, PerSeptive Biosytems, Framingham, Mass., USA; 485 nm excitation, 530 emission). DHR fluorescence was normalized to baseline using the formula at (Ft−Fo)/F0; Where Ft=DHR fluorescence at time t, Fo=DHR fluorescence at time zero. DHR fluorescence images were also acquired using a microscope (465-495 nm excitation and 515-555 nm emission) as described above for TMRM.

Data set [8] deals with NMDARs. The data set can be described thus: Whole cell patch-clamp recordings of NMDA currents in cultured neurons. Type of data set: cell-based, mouse. The following applies: intracellular dialysis of 1 mM peptide, 300 μM NMDA. (In patch-clamp work, channel activity is measured electrically.)
The subject of data set [9] is cortical neuronal cultures. The data set can be described thus: Staurosporine-induced cell death in cortical cultures. In kind it is cell-based, mouse. The settings on record: 200 μM for 48 h, staurosporine 1 μM.
Data set [10] has as its system mitochondrial membrane potential. The following applies: 10 μM; 10 min.
Method: Cultures were preincubated at 37° C. with 10 nM TMRM for 30 min. […] TMRM was maintained in the solution throughout the experiment. TMRM fluorescence was imaged on a Nikon Eclipse TE-2300 microscope using 20× objective (Nikon), a 510-560 nm bandpass excitation and 590 nm emission filter. Images were acquired using a Hamamatsu ORCA-ER digital camera and Simple PCI software (Nikon). Fluorescence from 10-30 cells was averaged and background subtracted for each image.
Where [11] appears, read: 20 h post-insult, 200 μM MnTBAP or 100 μM L-NAME.

As for `CN[C@@H]1C[C@H]2O[C@@](C)([C@@H]1OC)n1c3ccccc3c3c4c(c5c6ccccc6n2c5c31)C(=O)NC4` [staurosporine], in [1] (1 μM for 48 h), the “DNA laddering by gel electrophoresis” value is reported as “DNA ladders suggestive of intenucleosomal DNA fragmentation” and the TUNEL staining entry is recorded as “TUNEL staining was observed”. Moreover, the “active caspase 3 staining” value in [2] was “stained for active caspase 3”.

Turning to Tat-KLSSIETDV, in data set [3] (3 hours after TBI), the “total volume of injured brain” value is on record as “significantly reduced”. For the same compound, the “fraction of dead cells in cerebral cortex and hippocampus ipsilateral to the injury” value in [3] (via femoral cannula 3 hours after TBI) is listed as “markedly reduced fraction of dead cells”.

Take `CC(C(O)c1ccc(O)cc1)N1CCC(Cc2ccccc2)CC1` (centres unmarked) [Ro25-6981, reference compound]: the “infarct size versus control dose” value in [4] is recorded as “significant reduction in infarct size”.

With `N[C@@H](CSN=O)C(=O)O` [S-nitrosocysteine], in data set [5], the NO donor toxicity entry is given as “highly toxic”.

Take `O=C(O)c1ccc(-c2c3nc(c(-c4ccc(C(=O)O)cc4)c4ccc([n-]4)c(-c4ccc(C(=O)O)cc4)c4nc(c(-c5ccc(C(=O)O)cc5)c5ccc2[n-]5)C=C4)C=C3)cc1.[Mn+3]` [MnTBAP, manganese(III) tetrakis(4-benzoic acid) porphyrin]: in [6] (30 min preincubation, 20 h), the “cell death in stretched cells treated with 30 μM NMDA” value is on record as “completely eliminated cell death”. Further, in [1] (setting [11]), the “DNA laddering after stretch followed by NMDA” value is given as “virtually abolished” and the “TUNEL staining after stretch followed by NMDA” value was “virtually abolished”. Also, the “DHR fluorescence (ROS production)” value in data set [7] (200 μM pretreatment) was “reduced DHR fluorescence in all culture conditions”. Also, the SNP toxicity result in [5] (SNP 300 μM, 200 μM MnTBAP pretreatment) is given as “reduced SNP toxicity to baseline”.

In the case of CSKDTMEKSESL, the “peak NMDA current amplitudes” value in [8] is reported as 2540±281 pA.

As for “z-val-ala-asp-fluoromethylketone [z-VAD-FMK]”, the “cytotoxicity in stretched cultures with 30 μM NMDA” value in [6] is “no significant reduction in cytotoxicity”. In [6], the “toxicity to unstretched cultures or stretch alone” value is given as “not toxic”. Further, the “attenuation of staurosporine-induced death” value in data set [9] is “significantly reduced”; in data set [9] (listed as zvadFMK), 47%. Also, in [1] (DNA gel electrophoresis), the “DNA fragmentation of neurons exposed to stretch+NMDA” value is “did not reduce DNA fragmentation”.

Regarding `N#CC(C#N)=NNc1ccc(OC(F)(F)F)cc1` [FCCP, reference compound], the DHR fluorescence result in [7] (mitochondrial uncoupler) is given as “abolished all DHR fluorescence”. Moreover, the “mitochondrial depolarization (loss of TMRM fluorescence)” value in [10] was “profound mitochondrial depolarization”.
